Results reported in patent publication US6818649B2, “Chromenylmethyl pyrimidinediamines as antibacterial agents” (Basilea Pharmaceutica AG, priority 2000, dated 2004).
In brackets after ≈: the same amount, converted by molar mass. Blank lines part the entries; values can stand above or below the compound they belong to.

How the values were obtained:
[1] = molecular target: purified DHFR of the strain 157/4696 (highly trimethoprim-resistant; clinical isolate) of Staphylococcus aureus (Staphylococcus aureus, UniProt P13955); assay: biochemical
Excerpt: The inhibition of the enzyme was taken as a measurement for the antibacterial activity.

[2] = system: Streptococcus pneumoniae 1/1, Trimethoprim- and Penicillin-resistant, Serotype 6; clinical isolate; assay: MIC against Streptococcus pneumoniae 1/1; assay type: cell-based; conditions: read-out: MIC Spn1/1
Procedure: (§1) The following Table contains inhibitory concentrations determined in the above test for representative members of the class of compound defined by formula I. The following microorganisms were tested: […]
Col. 1: MIC Spn1/1; μg/ml (Streptococcus pneumoniae 1/1, Trimethoprim- and Penicillin-resistant, Serotype 6; clinical isolate, stored at −80° C.)
Lit.: H. Locher et al., Can. J. Infect. Dis.6: Suppl. C, p 469C.

[3] = system: Staphylococcus aureus 101, MRSA and Trimethoprim-resistant; clinical isolate; assay: MIC against Staphylococcus aureus 101; assay type: cell-based; conditions: read-out: MIC Sa101
Procedure: as §1
Col. 2: MIC Sa101; μg/ml (Staphylococcus aureus 101, MRSA^*)— and Trimethoprim-resistant; clinical isolate, stored at −80° C.)
^*) MRSA=Methicillin Resistant Staphylococcus Aureus

[4] = molecular target: T1, purified DHFR of strain Sp1/1 of Streptococcus pneumoniae (Streptococcus pneumoniae, UniProt Q54801); conditions: read-out: DHFR Spn1/1 (IC50); purified DHFR of S. pneumoniae strain Spn1/1; IC50 determined graphically
T1 sequence (Q54801 1-168): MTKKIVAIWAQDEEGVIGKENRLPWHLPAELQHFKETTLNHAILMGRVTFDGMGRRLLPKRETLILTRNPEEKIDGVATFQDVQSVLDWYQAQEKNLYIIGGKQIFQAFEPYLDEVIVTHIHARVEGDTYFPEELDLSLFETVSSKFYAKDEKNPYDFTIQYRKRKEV
Excerpt: 3: DHFR Spn1/1; μM—the IC50-values in μM against the purified DHFR of the above strain Sp1/1 of Streptococcus pneumoniae.

SMILES: CCOc1cc(Cc2cnc(N)nc2N)cc2c1OC(C)(C)C=C2[Si](C)(C)C
melting point: 189 to 190 °C

SMILES: CCOc1cc(Cc2cnc(N)nc2N)cc(OCC)c1-n1cccc1 [Epiroprim, reference compound]
IC50 [1]: 2000 nM | MIC [2]: 4 µg/mL (≈ 11.3 µM) | MIC [3]: 16 µg/mL (≈ 45.3 µM)

SMILES: COc1cc(Cc2cnc(N)nc2N)cc2c1OC(C)(C)C=C2Br [Example 2, 5-(4-Bromo-8-methoxy-2,2-dimethyl-2H-chromen-6-ylmethyl) -pyrimidine-2,4-diamine]
IC50 [1]: 150 nM | MIC [2]: 4 µg/mL (≈ 10.2 µM) | IC50 [4]: 52 nM | MIC [3]: 1 µg/mL (≈ 2.56 µM)

SMILES: COc1cc(Cc2cnc(N)nc2N)cc2c1OC(C)(C)C=C2SC [Example 4, 5-(8-Methoxy-2,2-dimethyl-4-methylsulfanyl-2H-chromen-6-ylmethyl)-pyrimidine-2,4-diamine]
IC50 [1]: 88 nM | MIC [2]: 4 µg/mL (≈ 11.2 µM) | IC50 [4]: 78 nM | MIC [3]: 2 µg/mL (≈ 5.58 µM)

SMILES: COc1cc(Cc2cnc(N)nc2N)cc2c1OC(C)(C)C=C2Cl [Example 6, 5-(4-Chloro-8-methoxy-2,2-dimethyl-2H-chromen-6-ylmethyl)-pyrimidine-2,4-diamine]
IC50 [1]: 380 nM | MIC [2]: 4 µg/mL (≈ 11.5 µM) | melting point: 221 to 222 °C | IC50 [4]: 110 nM | MIC [3]: 1 µg/mL (≈ 2.88 µM)

SMILES: CCOc1cc(Cc2cnc(N)nc2N)cc2c1OC(C)(C)C=C2Br [Example 7, 5-(4-Bromo-8-ethoxy-2,2-dimethyl-2H-chromen-6-ylmethyl)-pyrimidine-2,4-diamine]
IC50 [1]: 110 nM | MIC [2]: 0.5 µg/mL (≈ 1.23 µM) | IC50 [4]: 0.33 nM | MIC [3]: 0.5 µg/mL (≈ 1.23 µM)

SMILES: CCOc1cc(Cc2cnc(N)nc2N)cc2c1OC(C)(C)C=C2CO [Example 13, [6-(2,4-Diamino-pyrimidin-5-ylmethyl)-8-ethoxy-2,2-dimethyl-2H-chromen-4-yl]-methanol]
melting point: 187 to 189 °C

SMILES: CCOc1cc(Cc2cnc(N)nc2N)cc2c1OC(C)(C)C=C2 [Example 19, 5-(8-Ethoxy-2,2-dimethyl-2H-chromen-6-ylmethyl)-pyrimidine-2,4-diamine]
melting point: 184 to 186 °C

SMILES: COc1cc(Cc2cnc(N)nc2N)cc2c1OC1(C=C2Br)CCOCC1 [Example 21, 5-[(4-Bromo-2′,3′,5′,6′-tetrahydro-8-methoxyspiro[2H-1-benzopyran-2,4′-[4H]pyran]-6-yl)-methyl]-2,4-pyrimidinediamine]
IC50 [1]: 150 nM | MIC [2]: 4 µg/mL (≈ 9.23 µM) | IC50 [4]: 52 nM | MIC [3]: 1 µg/mL (≈ 2.31 µM)

SMILES: COc1cc(Cc2cnc(N)nc2N)cc2c1OC(C)(C)C=C2c1ccc(F)cc1 [Example 32, 5-[4-(4-Fluoro-phenyl)-8-methoxy-2,2-dimethyl-2H-chromen-6-ylmethyl]-pyrimidine-2,4-diamine]
IC50 [1]: 80 nM | MIC [2]: > 8 µg/mL | IC50 [4]: 190 nM | MIC [3]: > 8 µg/mL

SMILES: CCOc1cc(Cc2cnc(N)nc2N)cc2c1OC(C)(C)C=C2c1ccsc1 [Example 37, 5-(8-Ethoxy-2,2-dimethyl-4-thiophen-3-yl-2H-chromen-6-ylmethyl)-pyrimidine-2,4-diamine]
melting point: 217 °C (dec.)

SMILES: COc1cc(Cc2cnc(N)nc2N)cc2c1OC(C)(C)C=C2c1ccccc1 [Example 42, 5-(8-Methoxy-2,2-dimethyl-4-phenyl-2H-chromen-6-ylmethyl) -pyrimidine-2,4-diamine]
melting point: > 260 °C

SMILES: CCOc1cc(Cc2cnc(N)nc2N)cc2c1OC(C)(C)C=C2C(C)(C)O [Example 43, 2-[6-(2,4-Diamino-pyrimidin-5-ylmethyl)-8-ethoxy-2,2-dimethyl-2H-chromen-4-yl]-propan-2-ol]
melting point: 209 to 210 °C

SMILES: CCOc1cc(Cc2cnc(N)nc2N)cc2c1OC(C)(C)C=C2C(C)(O)CC (centres unmarked) [Example 44, 2-[6-(2,4-Diamino-pyrimidin-5-ylmethyl)-8-ethoxy-2,2-dimethyl-2H-chromen-4-yl]-butan-2-ol]
melting point: 127 to 128 °C

SMILES: CCOc1cc(Cc2cnc(N)nc2N)cc2c1OC(C)(C)C=C2c1ccncc1 [Example 47, 5-(8-Ethoxy-2,2-dimethyl-4-pyridin-4-yl-2H-chromen-6-ylmethyl)-pyrimidine-2,4-diamine]
melting point: 223 to 226 °C

SMILES: CCOc1cc(Cc2cnc(N)nc2N)cc2c1OC(C)(C)C=C2c1cccnc1 [Example 50, 5-(8-Ethoxy-2,2-dimethyl-4-pyridin-3-yl-2H-chromen-6-ylmethyl) -pyrimidine-2,4-diamine]
melting point: 145 °C (dec.)

SMILES: COc1cc(Cc2cnc(N)nc2N)cc2c1OC(C)(C)C=C2c1cccs1 [Example 51, 5-(8-Methoxy-2,2-dimethyl-4-thiophen-2-yl-2H-chromen-6-ylmethyl)-pyrimidine-2,4-diamine]
melting point: > 260 °C

SMILES: CCOc1ccc(C2=CC(C)(C)Oc3c(OCC)cc(Cc4cnc(N)nc4N)cc32)cc1 [Example 52, 5-[8-Ethoxy-4-(4-ethoxy-phenyl)-2,2-dimethyl-2H-chromen-6-ylmethyl]-pyrimidine-2,4-diamine]
melting point: 186 to 188 °C

SMILES: COc1cc(Cc2cnc(N)nc2N)cc2c1OC(C)(C)C=C2c1cccc([N+](=O)[O-])c1 [Example 53, 5-[8-Methoxy-2,2-dimethyl-4-(3-nitro-phenyl)-2H-chromen-6-ylmethyl]-pyrimidine-2,4-diamine]
melting point: 253 to 254 °C

SMILES: CCOc1cc(Cc2cnc(N)nc2N)cc2c1OC(C)(C)C=C2c1cccc(N)c1 [Example 56, 5-[4-(3-Amino-phenyl)-8-ethoxy-2,2-dimethyl-2H-chromen-6-ylmethyl]-pyrimidine-2,4-diamine]
melting point: 196 to 198 °C (dec.)

SMILES: COc1cc(Cc2cnc(N)nc2N)cc(OC)c1OC [Trimethoprim, reference compound]
MIC [2]: > 32 µg/mL | MIC [3]: 32 µg/mL (≈ 110 µM)

Continued, values first:

melting point: 256 to 257 °C
SMILES: CCC1=CC(C)(C)Oc2c(OC)cc(Cc3cnc(N)nc3N)cc21 [Example 3, 5-(4-Ethyl-8-methoxy-2,2-dimethyl-2H-chromen-6-ylmethyl)-pyrimidine-2,4-diamine]

melting point: 239 to 240 °C
SMILES: COc1cc(Cc2cnc(N)nc2N)cc2c1OC(C)(C)C=C2CO [Example 5, [6-(2,4-Diamino-pyrimidin-5-ylmethyl)-8-methoxy-2,2-dimethyl-2H-chromen-4-yl]-methanol]

melting point: 218 to 219 °C
SMILES: CCOc1cc(Cc2cnc(N)nc2N)cc2c1OC(C)(C)C=C2C#CC(C)O (centres unmarked) [Example 15, 4-[6-(2,4-Diamino-pyrimidin-5-ylmethyl)-8-ethoxy-2,2-dimethyl-2H-chromen-4-yl]-but-3-yn-2-ol]

melting point: 181 to 182 °C
SMILES: COc1cc(Cc2cnc(N)nc2N)cc2c1OC1(C=C2)CCCCC1 [Example 31, 5-[(8-Methoxyspiro[2H-1-benzopyran-2,1′-cyclohexan]-6-yl)methyl]-2,4-pyrimidine-diamine]

melting point: 267 °C (dec.)
SMILES: COc1cc(Cc2cnc(N)nc2N)cc2c1OC(C)(C)C=C2c1cccc(F)c1 [Example 33, 5-[4-(3-Fluoro-phenyl)-8-methoxy-2,2-dimethyl-2H-chromen-6-ylmethyl]-pyrimidine-2,4-diamine]

melting point: 185 to 186 °C
SMILES: CCOc1cc(Cc2cnc(N)nc2N)cc2c1OC(C)(C)C=C2c1cccc(F)c1 [Example 34, 5-[8-Ethoxy-4-(3-fluoro-phenyl)-2,2-dimethyl-2H-chromen-6-ylmethyl]-pyrimidine-2,4-diamine]

melting point: 204 to 205 °C (dec.)
SMILES: CCOc1cc(Cc2cnc(N)nc2N)cc2c1OC(C)(C)C=C2c1ccc(F)cc1 [Example 35, 5-[8-Ethoxy-4-(4-fluoro-phenyl)-2,2-dimethyl-2H-chromen-6-ylmethyl]-pyrimidine-2,4-diamine]

melting point: 213 to 214 °C (dec.)
SMILES: CCOc1cc(Cc2cnc(N)nc2N)cc2c1OC(C)(C)C=C2c1cccs1 [Example 36, 5-(8-Ethoxy-2,2-dimethyl-4-thiophen-2-yl-2H-chromen-6-ylmethyl)-pyrimidine-2,4-diamine]

melting point: 188 to 189 °C
SMILES: C=C(C)C1=CC(C)(C)Oc2c(OCC)cc(Cc3cnc(N)nc3N)cc21 [Example 45, 5-(8-Ethoxy-4-isopropenyl-2,2-dimethyl-2H-chromen-6-ylmethyl)-pyrimidine-2,4-diamine]

melting point: 236 to 237 °C
SMILES: COc1cc(Cc2cnc(N)nc2N)cc2c1OC(C)(C)C=C2C#CCO [Example 46, 3-[6-(2,4-Diamino-pyrimidin-5-ylmethyl)-8-methoxy-2,2-dimethyl-2H-chromen-4-yl]-prop-2-yn-1-ol]

melting point: 191 to 192 °C
SMILES: CCOc1cc(Cc2cnc(N)nc2N)cc2c1OC(C)(C)C=C2c1ccc(OC)c(OC)c1 [Example 48, 5-[4-(3,4-Dimethoxy-phenyl)-8-ethoxy-2,2-dimethyl-2H-chromen-6-ylmethyl]-pyrimidine-2,4-diamine]

melting point: 145 °C (dec.)
SMILES: CCOc1cc(Cc2cnc(N)nc2N)cc2c1OC(C)(C)C=C2c1cccc(NC(C)=O)c1 [Example 49, N-{3-[6-(2,4-Diamino-pyrimidin-5-ylmethyl)-8-ethoxy-2,2-dimethyl-2H-chromen-4-yl]-phenyl}-acetamide]

melting point: 197 to 199 °C
SMILES: CCOc1cc(Cc2cnc(N)nc2N)cc2c1OC(C)(C)C=C2Cl [Example 59, 5-(4-Chloro-8-ethoxy-2,2-dimethyl-2H-chromen-6-ylmethyl)-pyrimidine-2,4-diamine]
